Results taken from patent USRE47193E1, “Selectively substituted quinoline compounds” (EISAI R&D MANAGEMENT CO., LTD., priority 2013, dated 2019).
pIC50: −log10 of the molar value.

Target: T1, TLR9 (Homo sapiens, UniProt Q9NR96)
T1 sequence (Q9NR96 26-1032): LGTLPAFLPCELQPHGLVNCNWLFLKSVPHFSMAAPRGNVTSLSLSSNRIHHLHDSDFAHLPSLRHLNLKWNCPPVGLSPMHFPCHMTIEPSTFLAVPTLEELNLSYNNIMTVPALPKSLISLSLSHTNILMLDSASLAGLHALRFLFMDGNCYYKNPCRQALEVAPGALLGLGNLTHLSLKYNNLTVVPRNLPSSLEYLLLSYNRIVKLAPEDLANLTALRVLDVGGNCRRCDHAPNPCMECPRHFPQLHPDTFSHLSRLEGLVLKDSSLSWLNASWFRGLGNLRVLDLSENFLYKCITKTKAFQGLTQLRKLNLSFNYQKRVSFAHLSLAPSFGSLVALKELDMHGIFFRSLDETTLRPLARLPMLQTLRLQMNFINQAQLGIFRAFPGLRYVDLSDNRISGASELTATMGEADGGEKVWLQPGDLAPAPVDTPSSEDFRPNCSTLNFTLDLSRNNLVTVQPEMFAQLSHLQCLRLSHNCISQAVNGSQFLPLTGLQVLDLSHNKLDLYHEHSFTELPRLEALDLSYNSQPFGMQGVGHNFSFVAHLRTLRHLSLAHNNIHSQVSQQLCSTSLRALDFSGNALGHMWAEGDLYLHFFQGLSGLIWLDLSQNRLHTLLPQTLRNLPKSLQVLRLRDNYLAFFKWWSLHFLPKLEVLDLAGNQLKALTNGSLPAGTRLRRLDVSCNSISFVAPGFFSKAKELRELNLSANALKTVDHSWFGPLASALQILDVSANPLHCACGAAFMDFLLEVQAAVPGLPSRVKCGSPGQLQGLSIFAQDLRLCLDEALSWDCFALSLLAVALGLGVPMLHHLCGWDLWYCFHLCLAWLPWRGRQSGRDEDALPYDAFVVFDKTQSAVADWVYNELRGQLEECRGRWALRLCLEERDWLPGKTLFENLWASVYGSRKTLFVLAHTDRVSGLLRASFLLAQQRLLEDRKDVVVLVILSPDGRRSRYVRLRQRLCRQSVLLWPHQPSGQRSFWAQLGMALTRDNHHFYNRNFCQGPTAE
Assay: HEK-293 human TLR9 NF-kappaB luciferase reporter assay (CpG-ODN)
Format: cell-based
Parameters: stably and individually express human TLR4, TLR7 or TLR9 full-length ORF cDNAs; expressed in transfected cells; host or cells: HEK-293 (ATCC) with ELAM-1 NF-kappaB luciferase reporter
Settings: ligand CpG-ODN, analyte NFkB-luciferase
Method: To identify potent and selective TLR7/8 compounds, analogs were initially screened across a cell-based panel of human TLR4, TLR7, and TLR9 reporter lines (see Pharmacology Materials and Methods for more details). […] Certain compounds were advanced into the short-term in vivo (STIV) assay to determine dose-dependent activity and duration-of-action against mouse TLR7 (see Pharmacology Materials and Methods for more details). Select compounds were then evaluated for impact in one or more of the following mouse lupus disease models: BXSB-Yaa, NZBx-NZW, and Pristane DBA/1.
HEK-293 cells (ATCC) were engineered to stably express a NF-kappaB transcription factor inducible E-selectin (ELAM-1) luciferase reporter derived from the plasmid pGL3 (Promega) containing base pairs −2241 bp to −254 bp from the promoter of the human E-selectin gene (Accession No. NM_000450). These cells were then subsequently engineered to stably and individually express human TLR4, TLR7 or TLR9 full-length ORF cDNAs. Human TLR4 cDNA (Accession No. NM_138554) was cloned into pcDNA 3.0 expression vector (Invitrogen). TLR4 transfected cells were also engineered to express human MD-2 co-receptor [MD-2 cDNA (Accession No. NM_015364) was cloned into the pEF-BOS vector] and were supplemented with 10 nM soluble CD14 (R&D Systems) in the media to optimize LPS responsiveness. […]

**Q.** With C[C@@H]1CN(c2ccc(C#N)c3ncccc23)C[C@H](C(=O)N[C@H]2CNC[C@H]2F)O1.Cl [ER-899742, (2R,6R)-4-(8-cyanoquinolin-5-yl)-N-[(3S,4R)-4-fluoropyrrolidin-3-yl]-6-methylmorpholine-2-carboxamide hydrochloride] as the molecule, how does the pIC50 read?
**A.** < 5.00
